Source: patent US12280040B2, “Compositions and methods of a dihydroisoxazole compound that reduces ectoparasite infestations on fish” (EVAH Atlantic Inc., priority 2023, dated 2025)

System: copepodid stage of sea lice
Test: Bath test against copepodid stage of sea lice
Assay type: in vivo
Details: in a bath at similar dosage
Source text: While compounds in this class act with similar modes of action (in this case on the gamma-aminobutyric acid (GABA) and glutamate gated chloride channels), differences do exist among them that influence pharmacological activity.

For `C#CCNC(=O)CNC(=O)c1sc(C2=NOC(c3cc(Cl)cc(Cl)c3)(C(F)(F)F)C2)cc1C` (stereo not shown), the “activity against the copepodid stage of sea lice” value was “inactive”.
